Laboratory results as given in PubChem BioAssay AID248 (DTP/NCI, 2004).
Several values for one entry are separate records, joined by “and”; a condition that tells them apart may be missing. Identical values can stand only once. Toxic doses and inconclusive results are not listed.

Test system: L1210 leukemia ip in BDF1 mice, survival T/C
Test: NCI In Vivo Anticancer Drug Screen. Data for tumor model L1210 Leukemia (intraperitoneal) in B6D2F1 (BDF1) mice
Conditions: endpoint: mean survival time, higher = longer survival
Method in brief: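 Transplantable tumor model; survival measured in treated vs vehicle control mice. Value = treated/control.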

[1] = dose: 25.0 mg/kg/injection, schedule: Q01DX009 (ip), vehicle: saline with Tween-80
[2] = dose: 50.0 mg/kg/injection, schedule: Q01DX009 (ip), vehicle: saline with Tween-80
[3] = dose: 100.0 mg/kg/injection, schedule: Q01DX009 (ip), vehicle: saline with Tween-80
[4] = dose: 100.0 mg/kg/injection, schedule: Q04DX003 (ip), vehicle: Klucel (hydroxypropylcellulose) (HPC)
[5] = dose: 200.0 mg/kg/injection, schedule: Q04DX003 (ip), vehicle: Klucel (hydroxypropylcellulose) (HPC)
[6] = dose: 400.0 mg/kg/injection, schedule: Q04DX003 (ip), vehicle: Klucel (hydroxypropylcellulose) (HPC)
[7] = dose: 100.0 mg/kg/injection, schedule: Q04DX002 (ip), vehicle: Klucel (hydroxypropylcellulose) (HPC)
[8] = dose: 200.0 mg/kg/injection, schedule: Q04DX002 (ip), vehicle: Klucel (hydroxypropylcellulose) (HPC)
[9] = dose: 400.0 mg/kg/injection, schedule: Q04DX002 (ip), vehicle: Klucel (hydroxypropylcellulose) (HPC)
[10] = dose: 200.0 mg/kg/injection, schedule: Q01DX009 (ip), vehicle: Klucel (hydroxypropylcellulose) (HPC)
[11] = dose: 400.0 mg/kg/injection, schedule: Q01DX009 (ip), vehicle: Klucel (hydroxypropylcellulose) (HPC)
[12] = dose: 100.0 mg/kg/injection, schedule: Q04DX003 (ip), vehicle: saline
[13] = dose: 200.0 mg/kg/injection, schedule: Q04DX003 (ip), vehicle: saline
[14] = dose: 400.0 mg/kg/injection, schedule: Q04DX003 (ip), vehicle: saline
[15] = dose: 100.0 mg/kg/injection, schedule: Q01DX001 (ip), vehicle: saline
[16] = dose: 200.0 mg/kg/injection, schedule: Q01DX001 (ip), vehicle: saline

Q: What does the source list for `O=NN(CCCl)C(=O)N[C@@H]1CCCC[C@H]1O`?
A: T/C (dose: 1.6 mg/kg/injection, schedule: Q01DX001 (ip), vehicle: saline with Tween-80): 106 % of control; T/C (dose: 2.4 mg/kg/injection, schedule: Q01DX001 (ip), vehicle: saline with Tween-80): 116 % of control; T/C (dose: 5.4 mg/kg/injection, schedule: Q01DX001 (ip), vehicle: saline with Tween-80): 183 % of control; T/C (dose: 6.0 mg/kg/injection, schedule: Q01DX001 (ip), vehicle: saline with Tween-80): 302 % of control; T/C (dose: 8.0 mg/kg/injection, schedule: Q01DX001 (ip), vehicle: saline with Tween-80): 441 % of control; T/C (dose: 9.0 mg/kg/injection, schedule: Q01DX001 (ip), vehicle: saline with Tween-80): 492 % of control; T/C (dose: 12.0 mg/kg/injection, schedule: Q01DX001 (ip), vehicle: saline with Tween-80): 441 % of control and 468 % of control; T/C (dose: 13.0 mg/kg/injection, schedule: Q01DX001 (ip), vehicle: saline with Tween-80): 505 % of control; T/C (dose: 18.0 mg/kg/injection, schedule: Q01DX001 (ip), vehicle: saline with Tween-80): 441 % of control; T/C (dose: 20.0 mg/kg/injection, schedule: Q01DX001 (ip), vehicle: saline with Tween-80): 505 % of control; T/C (dose: 26.0 mg/kg/injection, schedule: Q01DX001 (ip), vehicle: saline with Tween-80): 166 % of control; T/C (dose: 30.0 mg/kg/injection, schedule: Q01DX001 (ip), vehicle: saline with Tween-80): 195 % of control

Q: Which results are given for `O=C(O)c1cc(Cc2c[nH]c(=O)[nH]c2=O)ccc1O`?
A: T/C (dose: 50.0 mg/kg/injection, schedule: Q01DX005 (ip), vehicle: water): 109 % of control; T/C (dose: 100.0 mg/kg/injection, schedule: Q01DX005 (ip), vehicle: water): 98 % of control; T/C (dose: 200.0 mg/kg/injection, schedule: Q01DX005 (ip), vehicle: water): 102 % of control

Q: Which results are given for `O=C(OCCCl)OCCCl`?
A: T/C [1]: 98 % of control; T/C [2]: 103 % of control and 91 % of control; T/C [3]: 93 % of control; T/C (dose: 200.0 mg/kg/injection, schedule: Q01DX009 (ip), vehicle: saline with Tween-80): 92 % of control

Q: Which results are given for `Cc1ccc(S(=O)(=O)OCC2C3CCC(c4ccccc43)C2COS(=O)(=O)c2ccc(C)cc2)cc1` (centres undefined)?
A: T/C [4]: 109 % of control; T/C [5]: 105 % of control; T/C [6]: 88 % of control

Q: For `CCC/C(=N/NC(=O)c1ccccc1)c1ccccc1`, which T/C [7] is on record?
A: 110 % of control

Q: And the T/C [8]?
A: 110 % of control

Q: What about the T/C [9] of the same molecule?
A: 100 % of control

Q: For `COC(=O)C(C)C(=O)OC`, which T/C (dose: 100.0 mg/kg/injection, schedule: Q01DX009 (ip), vehicle: acetone) is on record?
A: 93 % of control

Q: And the T/C (dose: 100.0 mg/kg/injection, schedule: Q04DX003 (ip), vehicle: acetone)?
A: 107 % of control

Q: What about the T/C (dose: 200.0 mg/kg/injection, schedule: Q01DX009 (ip), vehicle: acetone) of the same molecule?
A: 97 % of control

Q: What about the T/C (dose: 200.0 mg/kg/injection, schedule: Q04DX003 (ip), vehicle: acetone) of the same molecule?
A: 97 % of control

Q: And the T/C (dose: 400.0 mg/kg/injection, schedule: Q01DX009 (ip), vehicle: acetone)?
A: 93 % of control

Q: What about the T/C (dose: 400.0 mg/kg/injection, schedule: Q04DX003 (ip), vehicle: acetone) of the same molecule?
A: 94 % of control

Q: `O=NC1C(Cl)C2CC1C1CCCC21` (centres undefined) was tested. Which T/C [4] did it give?
A: 95 % of control

Q: And the T/C [10]?
A: 92 % of control

Q: And the T/C [5]?
A: 92 % of control

Q: And the T/C [11]?
A: 96 % of control

Q: What about the T/C [6] of the same molecule?
A: 94 % of control

Q: With `Cn1c(=O)c2[nH]c(CC3=CCCCC3)nc2n(C)c1=O` as the molecule, how does the T/C (dose: 50.0 mg/kg/injection, schedule: Q01DX001 (ip), vehicle: other) read?
A: 97 % of control

Q: And the T/C (dose: 100.0 mg/kg/injection, schedule: Q01DX001 (ip), vehicle: other)?
A: 92 % of control

Q: And the T/C (dose: 200.0 mg/kg/injection, schedule: Q01DX001 (ip), vehicle: other)?
A: 95 % of control

Q: What about the T/C (dose: 400.0 mg/kg/injection, schedule: Q01DX001 (ip), vehicle: other) of the same molecule?
A: 90 % of control

Q: What does the source list for `NNC(=O)CCCCC(=O)NN`?
A: T/C [12]: 100 % of control; T/C [13]: 97 % of control; T/C [14]: 100 % of control

Q: Which results are given for `CCc1nc(NS(=O)(=O)c2ccc(N)cc2)nc(-c2ccccc2)c1-c1ccccc1O`?
A: T/C [7]: 87 % of control; T/C [8]: 91 % of control; T/C [9]: 95 % of control

Q: How did the T/C (dose: 100.0 mg/kg/injection, schedule: Q01DX001 (ip), vehicle: carboxymethylcellulose (CMC)) turn out when `CC1([N+](=O)[O-])COP(=O)(Nc2cccc(Cl)c2)OC1` (centres undefined) was run?
A: 95 % of control

Q: What about the T/C (dose: 200.0 mg/kg/injection, schedule: Q01DX001 (ip), vehicle: carboxymethylcellulose (CMC)) of the same molecule?
A: 95 % of control

Q: And the T/C (dose: 400.0 mg/kg/injection, schedule: Q01DX001 (ip), vehicle: carboxymethylcellulose (CMC))?
A: 101 % of control

Q: Which results are given for `O=C(NCCO)Nc1ccccc1F`?
A: T/C (dose: 100.0 mg/kg/injection, schedule: Q01DX009 (ip), vehicle: saline): 95 % of control; T/C [12]: 95 % of control; T/C (dose: 200.0 mg/kg/injection, schedule: Q01DX009 (ip), vehicle: saline): 101 % of control; T/C [13]: 95 % of control; T/C (dose: 400.0 mg/kg/injection, schedule: Q01DX009 (ip), vehicle: saline): 106 % of control; T/C [14]: 93 % of control

Q: What does the source list for `O=C(O)c1ccc(/C=N/NC(=O)c2cccc3ccccc23)cc1`?
A: T/C [15]: 87 % of control; T/C [16]: 87 % of control

Q: `CCCCN(C)C(=S)S[Te](SC(=S)N(C)CCCC)(SC(=S)N(C)CCCC)SC(=S)N(C)CCCC` was tested. Which T/C [15] did it give?
A: 95 % of control

Q: What about the T/C [16] of the same molecule?
A: 90 % of control

Q: And the T/C (dose: 400.0 mg/kg/injection, schedule: Q01DX001 (ip), vehicle: saline)?
A: 93 % of control

Q: What about the T/C (dose: 800.0 mg/kg/injection, schedule: Q01DX001 (ip), vehicle: saline) of the same molecule?
A: 106 % of control

Q: What about the T/C (dose: 1600.0 mg/kg/injection, schedule: Q01DX001 (ip), vehicle: saline) of the same molecule?
A: 104 % of control

Q: Which T/C (dose: 100.0 mg/kg/injection, schedule: Q01DX001 (ip), vehicle: saline with Tween-80) does the source give for `Nc1ccnc(SCc2ccccc2)n1` here?
A: 90 % of control

Q: What about the T/C (dose: 200.0 mg/kg/injection, schedule: Q01DX001 (ip), vehicle: saline with Tween-80) of the same molecule?
A: 93 % of control

Q: What about the T/C (dose: 400.0 mg/kg/injection, schedule: Q01DX001 (ip), vehicle: saline with Tween-80) of the same molecule?
A: 93 % of control

Q: `Cn1cnc([N+](=O)[O-])c1[Se]c1nc(N)nc2nc[nH]c12` was tested. Which T/C (dose: 25.0 mg/kg/injection, schedule: Q01DX005 (ip), vehicle: other) did it give?
A: 159 % of control

Q: And the T/C (dose: 50.0 mg/kg/injection, schedule: Q01DX005 (ip), vehicle: other)?
A: 92 % of control

Q: With `NC(N)=N/N=C(/CC(=O)c1ccccc1)c1ccccc1` as the molecule, how does the T/C (dose: 15.0 mg/kg/injection, schedule: Q01DX Z (ip), vehicle: carboxymethylcellulose (CMC)) read?
A: 103 % of control

Q: What about the T/C (dose: 30.0 mg/kg/injection, schedule: Q01DX Z (ip), vehicle: carboxymethylcellulose (CMC)) of the same molecule?
A: 107 % of control

Q: What about the T/C (dose: 30.0 mg/kg/injection, schedule: Q01DX Z (oral), vehicle: carboxymethylcellulose (CMC)) of the same molecule?
A: 98 % of control

Q: What about the T/C (dose: 60.0 mg/kg/injection, schedule: Q01DX Z (ip), vehicle: carboxymethylcellulose (CMC)) of the same molecule?
A: 101 % of control

Q: What about the T/C (dose: 60.0 mg/kg/injection, schedule: Q01DX Z (oral), vehicle: carboxymethylcellulose (CMC)) of the same molecule?
A: 96 % of control

Q: And the T/C (dose: 120.0 mg/kg/injection, schedule: Q01DX Z (oral), vehicle: carboxymethylcellulose (CMC))?
A: 98 % of control

Q: And the T/C (dose: 240.0 mg/kg/injection, schedule: Q01DX Z (oral), vehicle: carboxymethylcellulose (CMC))?
A: 93 % of control and 100 % of control

Q: What about the T/C (dose: 480.0 mg/kg/injection, schedule: Q01DX Z (oral), vehicle: carboxymethylcellulose (CMC)) of the same molecule?
A: 100 % of control

Q: With `ClC1=NC(Cl)C(Cl)=N/C1=N\c1ncn[nH]1` (centres undefined) as the molecule, how does the T/C (dose: 6.25 mg/kg/injection, schedule: Q01DX009 (ip), vehicle: saline with Tween-80) read?
A: 103 % of control

Q: What about the T/C (dose: 12.5 mg/kg/injection, schedule: Q01DX009 (ip), vehicle: saline with Tween-80) of the same molecule?
A: 97 % of control

Q: And the T/C [1]?
A: 105 % of control

Q: What about the T/C (dose: 31.25 mg/kg/injection, schedule: Q01DX009 (ip), vehicle: saline with Tween-80) of the same molecule?
A: 87 % of control

Q: For `Sc1ccc2ccccc2c1`, which T/C (dose: 100.0 mg/kg/injection, schedule: Q01DX009 (ip), vehicle: Klucel (hydroxypropylcellulose) (HPC)) is on record?
A: 94 % of control

Q: And the T/C [12]?
A: 91 % of control

Q: And the T/C [10]?
A: 121 % of control

Q: What about the T/C [13] of the same molecule?
A: 88 % of control

Q: And the T/C [11]?
A: 110 % of control

Q: And the T/C [14]?
A: 86 % of control

Q: How did the T/C [1] turn out when `COc1ccc2c(c1)CCC1(C)C2=CC(=O)/C1=C\[O-].COc1ccc2c(c1)CCC1(C)C2=CC(=O)/C1=C\[O-].[Cu+2]` (centres undefined) was run?
A: 108 % of control

Q: And the T/C [2]?
A: 113 % of control

Q: What about the T/C [3] of the same molecule?
A: 97 % of control

Q: And the T/C (dose: 100.0 mg/kg/injection, schedule: Q04DX003 (ip), vehicle: saline sonified)?
A: 91 % of control
